Assay results: patent publication US10821093B2, “Antibacterial microelement chelates and the use thereof in animal feeds” (priority 2012, dated 2020)
Read-outs that look alike come from different tables or passages of the source. Marks after values point to notes of the source that are not given here.

Columns and labels:
Escherichia coli = assay: MIC, liquid culture dilution (single chelates and cross-dilution combinations); type: cell-based
Micrococcus luteus = assay: MIC, liquid culture dilution; type: cell-based
Salmonella enterica = assay: MIC, liquid culture dilution (single chelates and cross-dilution combinations); type: cell-based, Salmonella enterica subp. Enterica serovar enteritidis
LACTIC ACID PRODUCERS = assay: MIC, liquid culture dilution; type: cell-based
Saccharomyces cerevisiae = assay: MIC, liquid culture dilution; type: cell-based
Arcanobacterium piogenes = assay: MIC; type: cell-based
Clostridium perfringens [1] = type: cell-based
[2] = tested on: Brachyspira hyodysenteriae; assay: MIC (single chelates and combinations)
Clostridium perfringens [3] = conditions: treatment group III
Staphylococcus aureus = assay: MIC, liquid culture dilution; type: cell-based
Streptococcus agalactiae = assay: MIC, liquid culture dilution; type: cell-based
LSE = assay: Minimal lethal concentration (CID); type: cell-based, Saccharomyces cerevisiae
Method: (§1) It is the concentration of the active ingredient that causes the complete death of the microbes. Under sterile conditions within a laminar box, a dilution series was prepared from the liquid culture mediums that were incubated for 24 hours, then from the dilution series 100 μl each was placed onto agar dishes and spread with a sterile glass rod. The incubation period is 24 hours under conditions favorable for the growth of the microbe, then the number of colonies on the agar dishes are counted.
(§2) In the case where no colonies are visible on the culture medium after the incubation, it indicates the microbe killing effect (CID) of the trace element chelate. The number of countable colonies grown on the agar dishes gives the actual MIC value of the given trace element chelate.

Lactococcus = assay: Minimal lethal concentration (CID); type: cell-based
Method: as §1, §2

Salmonella = assay: Minimal lethal concentration (CID); type: cell-based
Method: as §1, §2

S. tiphy = type: cell-based
Lawsonia intracellularis = tested on: Lawsonia intracellularis
Method: Experimental feeding was performed with growing pigs, under pilot environmental conditions with the animal paired methods on a stock infected with the pathogen Lawsonia intracellularis. The control group received the usual antibiotic supplement mixed into the feed.

Clostridium perfringens [4] = tested on: Clostridium perfringens
E. coli = tested on: E. coli
Excerpt: The experimental animals had E. coli infection. The control group received the standard antibiotic supplement in the feed to control the E. coli infection.

Clostridium = assay: Minimal lethal concentration (CID); type: cell-based
Method: as §1, §2

[5] = 1 kg/t in feed, 101 days of fattening
[6] = vs antibiotic-supplemented control

Row | Molecule | Minimal inhibitory concentration (MIC) (Escherichia coli) [ppm] | Minimal inhibitory concentration (MIC) (Micrococcus luteus) [ppm] | Minimal inhibitory concentration (MIC) (Salmonella enterica) [ppm] | Minimal inhibitory concentration (MIC) (LACTIC ACID PRODUCERS) [ppm] | Minimal inhibitory concentration (MIC) (Saccharomyces cerevisiae) [ppm] | Minimal inhibitory concentration (MIC) (Arcanobacterium piogenes) [ppm] | Minimal inhibitory concentration (MIC) (Clostridium perfringens [1]) [ppm] | Minimal inhibitory concentration (MIC) [2] [ppm] | Minimal inhibitory concentration (MIC) (Staphylococcus aureus) [ppm] | Minimal inhibitory concentration (MIC) (Streptococcus agalactiae) [ppm] | other results
1 | Iron mono-glycinate | 350 | 100 | 450 | 1000 | 1000 | – | – | – | – | – | –
2 | NCC(=O)[O-].[Ag+] [Ag glycinate] | – | – | – | – | – | 184 | – | – | – | – | –
3 | [NH3+][Cu]1([NH3+])[O]C(=O)CN(CC(=O)O)CCN(CC(=O)O)CC(=O)[O]1 [Cu diamino ethylenediamine tetraacetic acid] | – | – | – | – | – | – | 20 | 80 | – | – | Egg yield increase compared to the negative control group (Clostridium perfringens [3]): 6.7%; Egg yield increase compared to the positive control group (Clostridium perfringens [3]): 22.4%; Total eggs (Clostridium perfringens [3]; 36 hens, C. perfringens inoculated): 1868 pc.; No. of eggs/hen (Clostridium perfringens [3]; C. perfringens inoculated): 51.80; Total egg weight (Clostridium perfringens [3]; C. perfringens inoculated): 125.70 kg; Weight of egg (Clostridium perfringens [3]; g/pc.): 67.2 g
4 | Zn(Glycine)2 [Zinc (H2O) bis-glycinate] | 120 | 60 | 220 | 800 | 500 | – | 180 | >4000 | 4 | 29 | –
5 | [NH2][Zn]([NH2])([O]C(=O)C(O)CC(=O)O)[O]C(=O)C(O)CC(=O)O (stereo not shown) [Zn diammine bis-malate, Zn diammonium malate] | 80 | – | 120 | 500 | 500 | 21 | 340 | 2315 | 80 | 20 | –
6 | NCC(=O)O.O=S(=O)([O-])[O-].[Zn+2] [Zinc mono-glycinate, zinc mono-glycinate chelate] | 100 | 60 | 100 | 800 | 800 | – | 210 | >4000 | 40 | 80 | CID concentration (LSE): 800 ppm; CID concentration (Lactococcus): 800 ppm; CID concentration (Salmonella; Salmonella): 3000 ppm; CID value relative to MIC value (Salmonella; Salmonella strains): 30 fold; Minimal inhibitory concentration (MIC) (Staphylococcus aureus; listed as Zn mono-glycinate): 20 ppm; Minimal inhibitory concentration (MIC) (Streptococcus agalactiae; listed as Zn mono-glycinate): 40 ppm; CID concentration (S. tiphy): 3000 ppm
7 | NCC(=O)[O][Cu]([NH3+])([NH3+])[O]C(=O)CN [copper diammonium bis-glycinate] | – | – | – | – | – | – | – | – | – | – | Added weight (Lawsonia intracellularis; [5]): 76.15 kg; Average slaughter weight (Lawsonia intracellularis; [5]): 107.01 kg; Feed utilization (Lawsonia intracellularis; [5]): 3.10 kg/kg; Added weight higher than control (Lawsonia intracellularis; [6]): 6.2%; Feed utilization better than control (Lawsonia intracellularis; [6]): 6.8%; Slaughter weight higher than control (Lawsonia intracellularis; [6]): 1.6%; Relative feed utilization (Clostridium perfringens [4]; 1.0 kg/t in feed, 42 days): 1.89 kg/kg; Total feed use (Clostridium perfringens [4]; 1.0 kg/t in feed, 42 days): 59 880 kg; Total living weight (Clostridium perfringens [4]; 1.0 kg/t in feed, 42 days): 32 395 kg; Total weight gain (Clostridium perfringens [4]; 1.0 kg/t in feed, 42 days): 31 681 kg; Chicken shipped (Clostridium perfringens [4]; 1.0 kg/t in feed, 42 days, 17 100 chicks at start): 16 238; Mean slaughter weight (Clostridium perfringens [4]; 1.0 kg/t in feed, 42 days, difference significant at P ≤ 0.001): 1995*** g; Faeces, signs of diarrhea (Clostridium perfringens [4]; experimental group, observation): no signs of a change indicating diarrhea was visible; Adverse side effects (Clostridium perfringens [4]; feeding the experimental composition, 1.0 kg/t): No adverse side effects were observed; Chicken shipped, difference to control group (Clostridium perfringens [4]; vs unsupplemented control): 4; Relative feed utilization, difference to control group (less feed per unit live weight gain) (Clostridium perfringens [4]; vs unsupplemented control): 3.6%; Total feed use, difference to control group (Clostridium perfringens [4]; vs unsupplemented control): 620 kg
8 | zinc ammonium maleinate | – | – | – | – | – | – | – | – | – | – | Daily weight gain (E. coli; 38 days): 391 g; Feed utilization (E. coli; 38 days): 2.04 kg/kg; Body weight at the end of the experiment (E. coli; 38 days, initial weight 9.19 kg): 24.05 kg; Average daily weight gain higher than control group (E. coli; [6]): 45%; Feed utilization better than control group (E. coli; [6]): 13%
9 | copper mono-glycinate chelate | 400 | 200 | 400 | 800 | 800 | 92 | 50 | 90 | – | – | CID concentration (LSE): 800 ppm; CID concentration (Lactococcus): 800 ppm; CID concentration (Clostridium; Clostridium): 200 ppm; CID value relative to MIC value (Clostridium; Clostridium strains): twice as much
10 | Manganese mono-glycinate | 300 | 100 | 300 | 1000 | 1000 | – | – | – | – | – | –
11 | NCC(=O)[O-].NCC(=O)[O-].O.[Cu+2] [Copper (H2O) bis-glycinate] | 300 | 60 | 400 | 800 | 800 | 32 | 100 | 96 | 5.3 | 171 | –
